Reference: ChEMBL document CHEMBL4390668, “Discovery and Structural Optimization of Acridones as Broad-Spectrum Antimalarials” (J Med Chem, 2019)
Activity calls are given as the source filed them. No cut-off for these calls is given here.

Assays:
[1] = test system: Plasmodium yoelii; test: Antimalarial activity against blood stage Plasmodium yoelii MR4 MRA-428 infected in CF1 mouse assessed as suppression of parasitemia administered once daily via oral gavage for 4 days starting from 24 hrs post-infection and measured post-last dose by Giemsa-staining based microscopic analysis; assay type: functional
[2] = test system: Plasmodium falciparum; test: Antimalarial activity against chloroquine-sensitive Plasmodium falciparum D6 infected in human erythrocytes by SYBR green 1-based fluorescence assay; assay type: functional, organism-based
[3] = test system: Plasmodium falciparum; test: Antimalarial activity against multidrug-resistant Plasmodium falciparum Dd2 infected in human erythrocytes by SYBR green 1-based fluorescence assay; assay type: functional, organism-based
[4] = test system: Plasmodium falciparum; test: Antimalarial activity against multidrug-resistant Plasmodium falciparum 7G8 infected in human erythrocytes by SYBR green 1-based fluorescence assay; assay type: functional, organism-based
[5] = test system: Plasmodium falciparum; test: Antimalarial activity against atovaquone-resistant Plasmodium falciparum Tm90-C2B infected in human erythrocytes by SYBR green 1-based fluorescence assay; assay type: functional, organism-based
[6] = test system: HepG2; test: Cytotoxicity against human HepG2 cells measured after 24 to 36 hrs by resazurin dye based fluorescence assay; assay type: cell-based
[7] = Selectivity index, ratio of IC50 for human HepG2 cells to IC50 for chloroquine-sensitive Plasmodium falciparum D6 infected in human erythrocytes; assay type: toxicity, cell-based; conditions: read-out: Ratio IC50
[8] = test system: Plasmodium berghei; test: Antimalarial activity against luciferase-expressing Plasmodium berghei ANKA 676m1cl1 sporozoites infected in human HepG2A16 cells measured after 45 hrs by luciferase-luciferin based reporter assay; assay type: functional, organism-based; conditions: ANKA 676m1cl1, HepG2A16, 45 h
[9] = test system: Plasmodium berghei; test: Antimalarial activity against liver stage luciferase-expressing Plasmodium berghei ANKA 676m1cl1 sporozoites infected in C57BL/6 mouse assessed as suppression of parasitemia at 40 to 160 mg/kg, po pretreated for 1 day followed by parasite infection and subsequent compound dosing for 2 days measured at 24 to 48 hrs post-infection by luciferin-based real-time imaging analysis; assay type: functional
[10] = target: hERG (KCNH2) (Homo sapiens, UniProt Q12809); test: Inhibition of human ERG expressed in CHOK1 cells at 10 uM by automated patch clamp method relative to control; assay type: cell-based; conditions: CHO-K1 cells that express hERG
[11] = Half life in human liver microsomes at 1 uM by LC-MS analysis; assay type: ADME, Microsome
[12] = Mutagenicity in Salmonella typhimurium TA100 assessed as increase in revertant colonies up to 10 uM in presence of S9 fraction by Ames test; assay type: toxicity, subcellular; conditions: salmonella enterica subsp. enterica serovar typhimurium
[13] = Mutagenicity in Salmonella typhimurium TA100 assessed as increase in revertant colonies up to 10 uM in absence of S9 fraction by Ames test; assay type: toxicity; conditions: salmonella enterica subsp. enterica serovar typhimurium
[14] = Mutagenicity in Salmonella typhimurium TA98 assessed as increase in revertant colonies up to 10 uM in presence of S9 fraction by Ames test; assay type: toxicity, subcellular; conditions: salmonella enterica subsp. enterica serovar typhimurium
[15] = Mutagenicity in Salmonella typhimurium TA98 assessed as increase in revertant colonies up to 10 uM in absence of S9 fraction by Ames test; assay type: toxicity; conditions: salmonella enterica subsp. enterica serovar typhimurium
[16] = Half life in mouse liver microsomes at 1 uM by LC-MS analysis; assay type: ADME, Microsome
[17] = test system: Plasmodium falciparum; test: Antimalarial activity against drug-resistant Plasmodium falciparum Dd2 harboring V259L mutant infected in human erythrocytes after 72 hrs by SYBR green 1-based fluorescence assay; assay type: functional, organism-based; conditions: Dd2, 72 h
[18] = test system: Plasmodium falciparum; test: Antimalarial activity against drug-resistant Plasmodium falciparum Dd2 harboring M133I/A138T double mutant infected in human erythrocytes after 72 hrs by SYBR green 1-based fluorescence assay; assay type: functional, organism-based; conditions: Dd2, 72 h
[19] = test system: Plasmodium falciparum; test: Antimalarial activity against drug-resistant Plasmodium falciparum Dd2 harboring M133I mutant infected in human erythrocytes after 72 hrs by SYBR green 1-based fluorescence assay; assay type: functional, organism-based; conditions: Dd2, 72 h
[20] = test system: Plasmodium falciparum; test: Antimalarial activity against Plasmodium falciparum 3D7 infected in human erythrocytes after 72 hrs by SYBR green 1-based fluorescence assay; assay type: functional, organism-based; conditions: 3D7, 72 h
[21] = test system: Plasmodium falciparum; test: Antimalarial activity against drug-resistant Plasmodium falciparum 3D7 harboring A82T/V259L double mutant infected in human erythrocytes after 72 hrs by SYBR green 1-based fluorescence assay; assay type: functional, organism-based; conditions: 3D7, 72 h
[22] = test system: Plasmodium falciparum; test: Ratio of IC50 for drug-resistant Plasmodium falciparum Dd2 harboring V259L mutant infected in human erythrocytes to IC50 for multidrug-resistant Plasmodium falciparum Dd2 infected in human erythrocytes; assay type: functional
[23] = test system: Plasmodium falciparum; test: Ratio of IC50 for drug-resistant Plasmodium falciparum Dd2 harboring M133I mutant infected in human erythrocytes to IC50 for multidrug-resistant Plasmodium falciparum Dd2 infected in human erythrocytes; assay type: functional
[24] = test system: Plasmodium falciparum; test: Ratio of IC50 for drug-resistant Plasmodium falciparum Dd2 harboring M133I/A138T double mutant infected in human erythrocytes to IC50 for multidrug-resistant Plasmodium falciparum Dd2 infected in human erythrocytes; assay type: functional
[25] = test system: Plasmodium falciparum; test: Ratio of IC50 for drug-resistant Plasmodium falciparum 3D7 harboring A82T/V259L double mutant infected in human erythrocytes to IC50 for Plasmodium falciparum 3D7 infected in human erythrocytes; assay type: functional
[26] = test system: Plasmodium falciparum; test: Inhibition of Plasmodium falciparum cytochrome b-c1
[27] = Mean residence time in ICR mouse plasma at 80 mg/kg, po administered as single dose; assay type: ADME, organism-based
[28] = Apparent volume of distribution in ICR mouse plasma at 80 mg/kg, po administered as single dose; assay type: ADME, organism-based; conditions: in vivo
[29] = test system: Plasmodium berghei; test: Antimalarial activity against blood stage luciferase-expressing Plasmodium berghei ANKA 676m1cl1 sporozoites infected in C57BL/6 mouse assessed as suppression of parasitemia at 25 mg/kg, po pretreated for 1 day followed by parasite infection and subsequent compound dosing for 2 days measured up to 30 days post-infection by YOYO1 staining based flow cytometry; assay type: functional
[30] = Cmax in ICR mouse plasma at 80 mg/kg, po administered as single dose; assay type: ADME, organism-based; design: dose 80 mg/kg, route oral; conditions: ICR, plasma, read-out: Cmax
[31] = Tmax in ICR mouse plasma at 80 mg/kg, po administered as single dose; assay type: ADME, organism-based; conditions: ICR, plasma, read-out: Tmax
[32] = AUC (0 to last) in ICR mouse plasma at 80 mg/kg, po administered as single dose; assay type: ADME, organism-based; design: dose 80 mg/kg, route oral, time 0 - last
[33] = AUC (0 to infinity) in ICR mouse plasma at 80 mg/kg, po administered as single dose; assay type: ADME, organism-based; design: dose 80 mg/kg, route oral, time infinity
[34] = Cmax in ICR mouse liver at 80 mg/kg, po administered as single dose; assay type: ADME, organism-based; design: dose 80 mg/kg, route oral
[35] = Tmax in ICR mouse liver at 80 mg/kg, po administered as single dose; assay type: ADME, organism-based
[36] = AUC (0 to last) in ICR mouse liver at 80 mg/kg, po administered as single dose; assay type: ADME, organism-based; design: dose 80 mg/kg, route oral, time 0 - last
[37] = AUC (0 to infinity) in ICR mouse liver at 80 mg/kg, po administered as single dose; assay type: ADME, organism-based; design: dose 80 mg/kg, route oral, time infinity
[38] = Apparent volume of distribution in ICR mouse liver at 80 mg/kg, po administered as single dose; assay type: ADME, organism-based; conditions: in vivo
[39] = Mean residence time in ICR mouse liver at 80 mg/kg, po administered as single dose; assay type: ADME, organism-based
[40] = Apparent elimination half life in ICR mouse plasma at 80 mg/kg, po administered as single dose; assay type: ADME, organism-based; conditions: ICR, plasma, read-out: betat1/2(app) (converted)
[41] = test system: Plasmodium yoelii; test: Antimalarial activity against blood stage Plasmodium yoelii MR4 MRA-428 infected in CF1 mouse assessed as suppression of parasitemia at 80 mg/kg, po administered once daily via gavage for 4 days starting from 24 hrs post-infection and measured at weekly intervals for 28 days by Giemsa-staining based microscopic analysis; assay type: functional
[42] = Toxicity in CF1 mouse infected with blood stage Plasmodium yoelii MR4 MRA-428 assessed as clinical toxicity at 80 mg/kg, po administered once daily via gavage for 4 days starting from for 4 days starting from 24 hrs post-infection and measured daily during compound dosing; assay type: organism-based; conditions: in vivo
[43] = Toxicity in CF1 mouse infected with blood stage Plasmodium yoelii MR4 MRA-428 assessed as behavioral changes at 80 mg/kg, po administered once daily via gavage for 4 days starting from for 4 days starting from 24 hrs post-infection and measured daily during compound dosing; assay type: organism-based; conditions: in vivo
[44] = test system: Plasmodium berghei; test: Antimalarial activity against liver stage luciferase-expressing Plasmodium berghei ANKA 676m1cl1 sporozoites infected in C57BL/6 mouse assessed as suppression of parasitemia at 10 mg/kg, po pretreated for 1 day followed by parasite infection and subsequent compound dosing for 2 days measured at 24 to 48 hrs post-infection by luciferin-based real-time imaging analysis; assay type: functional
[45] = test system: Plasmodium berghei; test: Antimalarial activity against blood stage luciferase-expressing Plasmodium berghei ANKA 676m1cl1 sporozoites infected in C57BL/6 mouse assessed as suppression of parasitemia at 10 mg/kg, po pretreated for 1 day followed by parasite infection and subsequent compound dosing for 2 days measured up to 30 days post-infection by YOYO1 staining based flow cytometry; assay type: functional
[46] = test system: Plasmodium berghei; test: Antimalarial activity against blood stage luciferase-expressing Plasmodium berghei ANKA 676m1cl1 sporozoites infected in C57BL/6 mouse assessed as suppression of parasitemia at 4 mg/kg, po pretreated for 1 day followed by parasite infection and subsequent compound dosing for 2 days measured up to 30 days post-infection by YOYO1 staining based flow cytometry; assay type: functional
[47] = Apparent clearance in ICR mouse plasma at 80 mg/kg, po administered as single dose; assay type: ADME, organism-based; conditions: read-out: CL(app) (converted)
[48] = Apparent elimination half life in ICR mouse liver at 80 mg/kg, po administered as single dose; assay type: ADME, organism-based; conditions: read-out: betat1/2(app) (converted)

Chain of hERG (KCNH2) (Q12809 whole entry): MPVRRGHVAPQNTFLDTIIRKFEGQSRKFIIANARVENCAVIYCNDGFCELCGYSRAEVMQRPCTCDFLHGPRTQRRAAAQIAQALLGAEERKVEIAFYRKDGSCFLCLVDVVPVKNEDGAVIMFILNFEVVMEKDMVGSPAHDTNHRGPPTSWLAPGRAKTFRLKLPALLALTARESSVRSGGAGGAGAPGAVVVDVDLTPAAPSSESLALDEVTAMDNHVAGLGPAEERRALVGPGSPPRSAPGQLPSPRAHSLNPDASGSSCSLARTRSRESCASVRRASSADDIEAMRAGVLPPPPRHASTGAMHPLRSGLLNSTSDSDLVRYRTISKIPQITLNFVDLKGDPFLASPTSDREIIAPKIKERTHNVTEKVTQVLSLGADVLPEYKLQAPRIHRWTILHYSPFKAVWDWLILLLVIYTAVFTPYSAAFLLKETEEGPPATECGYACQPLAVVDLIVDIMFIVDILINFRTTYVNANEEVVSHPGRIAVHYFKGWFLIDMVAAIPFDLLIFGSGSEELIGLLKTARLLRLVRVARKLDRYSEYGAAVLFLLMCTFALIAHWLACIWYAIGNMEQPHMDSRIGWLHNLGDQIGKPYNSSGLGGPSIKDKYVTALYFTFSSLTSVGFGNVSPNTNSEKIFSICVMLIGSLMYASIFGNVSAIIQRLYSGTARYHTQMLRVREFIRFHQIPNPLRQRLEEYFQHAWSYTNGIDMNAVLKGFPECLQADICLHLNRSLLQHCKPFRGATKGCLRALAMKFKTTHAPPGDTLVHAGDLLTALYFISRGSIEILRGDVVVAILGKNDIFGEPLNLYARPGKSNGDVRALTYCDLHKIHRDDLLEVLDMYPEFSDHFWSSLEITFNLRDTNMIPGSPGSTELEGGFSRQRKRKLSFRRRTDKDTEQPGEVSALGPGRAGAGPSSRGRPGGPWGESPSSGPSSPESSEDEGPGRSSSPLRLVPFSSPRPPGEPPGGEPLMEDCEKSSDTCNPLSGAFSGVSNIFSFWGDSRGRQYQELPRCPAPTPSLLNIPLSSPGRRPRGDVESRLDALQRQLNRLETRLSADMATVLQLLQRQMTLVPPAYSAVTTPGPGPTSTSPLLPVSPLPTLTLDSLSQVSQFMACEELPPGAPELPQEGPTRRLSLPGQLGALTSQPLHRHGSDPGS

Row | Structure (SMILES) | ED50 [1] | ED90 [1] | IC50 [3] | IC50 [4] | IC50 [5] | IC50 [8] | inhibition at 10 µM [10] | half-life at 1 µM [11] | Activity [12] | Activity [13] | Activity [14] | Activity [15] | half-life at 1 µM [16] | IC50 [17] | IC50 [18] | IC50 [21] | inhibition [26] | MRT [27] | Vz [28] | Cmax [30] | other results
1 | CCN(CC)CCOc1ccc2c(=O)c3c(Cl)c(Cl)ccc3[nH]c2c1 | 1.8 mg/kg.day | 8.8 mg/kg.day | 12 to 40 nM | 17 nM | 1260 nM | 5.5 nM | 78% | > 1 h | Non-Toxic | Non-Toxic | Non-Toxic | Non-Toxic | 0.833 h | 1440 nM | 1680 nM | 1520 nM | inactive |  |  |  | IC50 [2]: 10 nM; IC50 [6]: 14400 nM; selectivity ratio [7]: 1440; Activity [9]: 100%; IC50 [19]: 242 nM; IC50 [20]: 28 nM; Ratio IC50 [22]: 36; Ratio IC50 [23]: 6; Ratio IC50 [24]: 42; Ratio IC50 [25]: 54
2 | COc1cc(NC(C)CCCN)c2ncccc2c1 (stereo not drawn) [PRIMAQUINE] |  |  |  |  |  |  |  |  |  |  |  |  |  |  |  |  |  | 2.3 h | 43.801 L/kg | 531 ng/mL | Activity [29]: 100%; Tmax [31]: 0.5 h; AUC(0-t) [32]: 1260 ng·h/mL; AUC ([33]; in vivo): 1314 ng·h/mL; Cmax [34]: 8150 ng/mL; Tmax [35]: 0.5 h; AUC(0-t) [36]: 27400 ng·h/mL; AUC(0-inf) [37]: 27700 ng·h/mL; Vz [38]: 4.418 L/kg; MRT [39]: 4.5 h
3 | CCCCN(CCCC)CCOc1ccc2c(=O)c3c(Cl)c(Cl)ccc3[nH]c2c1 | 1.03 mg/kg.day | 1.64 mg/kg.day | 0.041 to 14 nM | 0.043 nM | 228 nM | 0.5 nM | 57% | 0.2 h | Non-Toxic | Non-Toxic | Non-Toxic | Non-Toxic | 0.35 h | 140 nM | 38 nM | 57 nM | inactive | 6.96 h | 223.865 L/kg | 226 ng/mL | half-life [40]: 6 h; Activity [41]: 100%; Activity [42]: Non-Toxic; Activity [43]: Non-Toxic; Activity [44]: 100%; Activity [45]: 100%; Activity [46]: 100%; Tmax [31]: 2.75 h; AUC(0-t) [32]: 3050 ng·h/mL; AUC(0-inf) ([33]; ICR, plasma): 3240 ng·h/mL; CL/F [47]: 431 mL/min/kg; Cmax [34]: 21300 ng/mL; Tmax [35]: 2.75 h; AUC(0-t) [36]: 168000 ng·h/mL; AUC(0-inf) [37]: 169000 ng·h/mL; half-life [48]: 4.63 h; Vz [38]: 3.605 L/kg; MRT [39]: 10.1 h
